From US20050008896A1, “Luminous organic compound and manufacturing method” (Orient Chemical Ind., Ltd., priority 2003, published 2005)
Where two headings read alike, the source gives them in different places.

Key:
[1] = Fluorescence (photoluminescence) intensity in ethanol, fluorescence spectrophotometer RF-5300PC; assay type: physicochemical; conditions: for Relative Value of Fluorescence Intensity, Relative Value (2) (Related to Metal Complex Intermediate 3): metal complex intermediate 3 regarded as 1.00
Description: Fluorescence intensity of each obtained compound was measured in order to evaluate fluorescence property.
A method of the evaluation is as follows. 25 mg of each compound was dissolved in 100 ml of ethanol respectively. The fluorescence intensity, photoluminescence intensity, was measured by a fluorescence spectrophotometer RF-5300PC that is available from Shimadzu Corporation. The measured results of the luminous organic compounds 1 to 9 and 11, the comparative compounds 1 to 3 and the metal complex intermediate 1 to 3 are indicated in Table 3. […] The relative value (2) of the fluorescence intensity indicates the value related to the fluorescence intensity of the metal complex intermediate 3 regarded as 1.00.

[2] = stood at room temperature overnight
Description: A method of measurement of the solubility is as follows. After the prescribed amount of the compound was added to each solvent, it was heated by water bath and irradiated supersonic wave for 1 hour. It was stood at room temperature overnight, and filtrated. Obtained residue was dried. Amount of insoluble residue was weighed, and solubility (w/v %) was determined.

[3] = 25 mg of compound in 100 ml of ethanol

SMILES | Fluorescence Intensity [1, 3] | center of Luminous Wave [1, 3] | Relative Value of Fluorescence Intensity, Relative Value (1) (Related to Comparative Compound 3) ([1]; comparative compound 3 regarded as 1.00) | Relative Value of Fluorescence Intensity, Relative Value (2) (Related to Metal Complex Intermediate 3) [1] | Solubility, Ethanol [2] [w/v %] | Solubility, Ethyl Acetate [2] [w/v %] | Solubility, Methyl Ethyl Ketone [2] | Solubility, Toluene [2] [w/v %] | Solubility, Xylene [2] [w/v %] | Relative Value of Fluorescence Intensity, Relative Value (1) (Related to Comparative Compound 3) [1]
C[N+](C)(C)c1ccc(C(c2ccc([N+](C)(C)C)cc2)c2ccc([N+](C)(C)C)cc2)cc1.O=C(C=C([O-])C(F)(F)F)c1ccc2ccccc2c1.O=C(C=C([O-])C(F)(F)F)c1ccc2ccccc2c1.O=C(C=C([O-])C(F)(F)F)c1ccc2ccccc2c1.O=C(C=C([O-])C(F)(F)F)c1ccc2ccccc2c1.O=C(C=C([O-])C(F)(F)F)c1ccc2ccccc2c1.O=C(C=C([O-])C(F)(F)F)c1ccc2ccccc2c1.O=C(C=C([O-])C(F)(F)F)c1ccc2ccccc2c1.O=C(C=C([O-])C(F)(F)F)c1ccc2ccccc2c1.O=C(C=C([O-])C(F)(F)F)c1ccc2ccccc2c1.O=C(C=C([O-])C(F)(F)F)c1ccc2ccccc2c1.O=C(C=C([O-])C(F)(F)F)c1ccc2ccccc2c1.O=C(C=C([O-])C(F)(F)F)c1ccc2ccccc2c1.[Eu+3].[Eu+3].[Eu+3] [Luminous Organic Compound 7] | 835 | (613 nm) | 1.66 | 1.69 | 0.16 | 10.0 | over 10.0 w/v % | 0.14 | 0.16 | –
C[N+](C)(C)c1ccc(-c2ccc([N+](C)(C)C)cc2)cc1.O=C(C=C([O-])C(F)(F)F)c1ccc2ccccc2c1.O=C(C=C([O-])C(F)(F)F)c1ccc2ccccc2c1.O=C(C=C([O-])C(F)(F)F)c1ccc2ccccc2c1.O=C(C=C([O-])C(F)(F)F)c1ccc2ccccc2c1.O=C(C=C([O-])C(F)(F)F)c1ccc2ccccc2c1.O=C(C=C([O-])C(F)(F)F)c1ccc2ccccc2c1.O=C(C=C([O-])C(F)(F)F)c1ccc2ccccc2c1.O=C(C=C([O-])C(F)(F)F)c1ccc2ccccc2c1.[Eu+3].[Eu+3] [Luminous Organic Compound 5] | 644 | – | – | 1.30 | 0.37 | 3.46 | over 10.0 w/v % | 0.30 | 0.52 | 1.28
